Legend:
fasted normal rats = experiment: Serum calcium change after oral administration of salmon calcitonin preparations; format: in vivo, rat
Method: (§1) The polypeptide hormone is incorporated into the liposome as follows: the phospholipid components are dissolved in an organic solvent such as chloroform. The solvent is then removed to produce a lipid film. A buffer solution containing the polypeptide hormone is then added and mixed to form a suspension of the phospholipid film and polypeptide hormone. The suspension is then sonicated to form the liposome-entrapped polypeptide hormone. The suspension is then centrifuged at 120,000 times g for 16 hours to obtain a pellet consisting of liposome-entrapped hormone while the supernatant contains the unentrapped hormone. The liposomes in the pellet are then taken up in a small amount of buffer and subsequently used to influence calcium homestasis by oral administration.
Purified salmon and human calcitonin or human parathyroid hormone (1-34 amino acid fragment) were incorporated into liposomes consisting of natural or synthetic phospholipids and positively-charged amine-containingamphiphile. Liposomes containing the entrapped hormones were isolated by centrifugation, resuspended in buffer and administered by stomach tube to fasted normal rats (calcitonin) or fasted parathyroidectomized rats (parathyroid hormone). The serum calcium was determined at various time intervals in treated and untreated animals to assess the effect of the respective preparations. […]

[1] = system: fasted parathyroidectomized rats; experiment: Serum calcium change after oral administration of PTH preparations by stomach tube; format: in vivo, rat
Method: as §1
Purified salmon and human calcitonin or human parathyroid hormone (1-34 amino acid fragment) were incorporated into liposomes consisting of natural or synthetic phospholipids and positively-charged amine-containingamphiphile. Liposomes containing the entrapped hormones were isolated by centrifugation, resuspended in buffer and administered by stomach tube to fasted normal rats (calcitonin) or fasted parathyroidectomized rats (parathyroid hormone). The serum calcium was determined at various time intervals in treated and untreated animals to assess the effect of the respective preparations.
450 micromoles of egg phosphatidylcholine (ePC) and 50 micromoles of stearylamine (SA) were dissolved in 2 to 3 ml of anhydrous chloroform placed in a 30 ml glass stopper tube and the solvent was removed in vacuo. To the thin film of lipid remaining on the wall of the tube was added 5.0 ml of buffer (20 mM NaCl containing 5 mM Tris, pH 7.4) containing 1 mg human PTH (hPTH 1-34) and 1×10^6 CPM of I^125 -human PTH tracer (hPTH 1-34). The buffer was mixed at room temperature for 5 minutes using a vortex mixer.
After vortexing the mixture was sonicated for 3 minutes at room temperature using the cuphorn of a Heat Systems Ultrasonics sonicator at maximal output. […]

Row | Compound | enhancement of the calcitonin effect on serum calcium by additive (in words) (fasted normal rats) | Change in serum Ca2+ ([1]; Table 2: oral, 40 μg, after 2 hr, triplicate, mean ± Std. error of mean) | Change in serum Ca2+ ([1]; Table 3: 2 hours after oral administration to rats, 40 μg PTH, values marked (3) are triplicate mean ± Std. error of mean) | effect on serum calcium (in words) ([1]; oral administration to rats, equivalent dose)
1 | CC(=O)Oc1ccccc1C(=O)O [aspirin] | enhances slightly the effect of free CT |  |  | 
2 | Free PTH: free human parathyroid hormone, 1-34 amino acid fragment, given orally (SVSEIQLMHNLGKHLNSMERVEWLRKKLQDVHNF; Parathyroid hormone; UniProt P01270 32-65, looked up, fragment) |  | +0.08 0.25 mg/dl | -0.05 mg/dL | no effect
